Experimental data from patent US6638509B1, “Toxin conjugates” (Kyowa Hakko Kogyo, Co., Ltd., priority 1995, dated 2003).

Test system: Human myeloma SK-Ly-18 cells
Test: Therapeutic effect on transplanted tumor in nude mice (Test Example 4)
Assay type: in vivo, BALB/C nu/nu mice
Conditions: intravenous, amount corresponding to 7.5 mg/kg ADM, on the 7th day after transplantation, compared with control group, FIG. 2
Description: Human myeloma SK-Ly-18 cells were suspended in RPMI-1640 medium containing 10% fetal calf serum at a concentration of 2×10^8 cells/ml, and the suspension was mixed with Matrigel (registered trademark; Becton Dickinson Labware, USA) in the ratio of 1:1 (v/v). The mixture (0.1 ml, 1×10^7 cells/mouse) was subcutaneously transplanted into BALB/C nu/nu mice (Clea Japan, Inc.). On the 7th day after the tumor transplantation, a drug-monoclonal antibody conjugate (amount corresponding to 7.5 mg/kg ADM) or ADM (7.5 mg/kg) was intravenously administered to the mice divided in groups each consisting of 5. A control group was given physiological saline in the same manner. The major axis and the minor axis of tumor were measured at intervals, and the tumor volume was calculated as an approximation value of an ellipsoid according to the following equation.
Tumor Volume (mm^3)=(a×b^2)/2
a: major axis (mm) b: minor axis (mm)
The therapeutic effect on the transplanted tumor was evaluated in terms of V/V0, the ratio of the tumor volume on the day of evaluation (V) to that on the day of drug administration (V0).

COc1cccc2c1C(=O)c1c(O)c3c(c(O)c1C2=O)C[C@@](O)(C(=O)CO)C[C@@H]3O[C@H]1C[C@H](N)[C@H](O)[C@H](C)O1 [ADM, Adriamycin, reference compound]
tumor growth inhibiting effect (V/V0): a growth inhibiting effect was not observed
